Measured values: ChEMBL document CHEMBL5360614, “Quinoline Thiourea-Based Zinc Ionophores with Antibacterial Activity” (J Med Chem, 2023)
≈ marks a conversion by molar mass, not a printed value. Non-standard residues stand in square brackets, D forms with d. Residues, ends and D or L forms follow the SMILES beside them. ξ: configuration not given here. Orn = NCCC[C@H](N)C(=O)O; ξP = O=C(O)C1CCCN1

What was measured:
Type in all cases: functional
[1] = tested on: Escherichia coli; test: Antibacterial activity against Escherichia coli MTCC 1687 assessed as reduction in bacterial growth incubated for 14 to 16 hrs by microbroth dilution method; conditions: time 14-16 hrs
[2] = tested on: Staphylococcus aureus; test: Antibacterial activity against Staphylococcus aureus MTCC-96 assessed as reduction in bacterial growth incubated for 14 to 16 hrs by microbroth dilution method; conditions: time 14-16 hrs
[3] = tested on: Staphylococcus aureus; test: (§1) Antibacterial activity against gentamicin-and methicillin-resistant Staphylococcus aureus ATCC 33592 assessed as reduction in bacterial growth incubated for 14 to 16 hrs by microbroth dilution method; conditions: time 14-16 hrs
[4] = tested on: Staphylococcus aureus; test: as §1, with “hrs in presence of 1 uM 1-(2-(1H-benzo[d]imidazol-1-yl)quinolin-8-yl)-3-(3,5-bis(trifluoromethyl)phenyl)thiourea and 200 uM ZnCl2” for “hrs”; conditions: time 14-16 hrs
[5] = tested on: Staphylococcus aureus; test: as §1, with “hrs in presence of 1 uM 1-(2-(1H-benzo[d]imidazol-1-yl)quinolin-8-yl)-3-(3,5-bis(trifluoromethyl)phenyl)thiourea and 100 uM ZnCl2” for “hrs”; conditions: time 14-16 hrs
[6] = tested on: Staphylococcus aureus; test: (§2) Antibacterial activity against gentamicin-and methicillin-resistant Staphylococcus aureus ATCC 33592 assessed as reduction in bacterial growth incubated for 14 to 16 hrs in presence of 200 uM ZnCl2 by microbroth dilution method; conditions: time 14-16 hrs
[7] = tested on: Staphylococcus aureus; test: as §2, with “1” for “200”, “1-(2-(1H-benzo[d]imidazol-1-yl)quinolin-8-yl)-3-(3,5-bis(trifluoromethyl)phenyl)thiourea” for “ZnCl2”; conditions: time 14-16 hrs
[8] = tested on: Staphylococcus aureus; test: Potency index, ratio of compound MIC to compound MIC in presence of 1 uM 1-(2-(1H-benzo[d]imidazol-1-yl)quinolin-8-yl)-3-(3,5-bis(trifluoromethyl)phenyl)thiourea and 200 uM ZnCl2 for antibacterial activity against gentamicin-and methicillin-resistant Staphylococcus aureus ATCC 33592

| SMILES | MIC [1] [µM] | MIC [2] [µM] | MIC [3] [µM] | MIC [4] [µM] | MIC [5] [µM] | MIC [6] [µM] | MIC [7] [µM] | Ratio [8] |
| --- | --- | --- | --- | --- | --- | --- | --- | --- |
| FC(F)(F)c1cc(NC(=S)Nc2cccc3ccc(-n4ccnc4)nc23)cc(C(F)(F)F)c1 | > 50 | 12.5 (≈ 6.02 µg/mL) | 12.5 (≈ 6.02 µg/mL) |  |  |  |  |  |
| O=C(Nc1cc(C(F)(F)F)cc(C(F)(F)F)c1)Nc1cccc2cccnc12 | > 50 | > 50 | > 50 |  |  |  |  |  |
| COc1ccc(NC(=S)Nc2cccc3cccnc23)cc1 | > 50 | > 25 | > 50 |  |  |  |  |  |
| NC[C@H]1O[C@H](O[C@H]2[C@H](O)[C@@H](O[C@H]3O[C@H](CO)[C@@H](O)[C@H](N)[C@H]3O)[C@H](N)C[C@@H]2N)[C@H](O)[C@@H](O)[C@@H]1O [KANAMYCIN] |  |  | 155 (≈ 75.1 µg/mL) | 0.31 | 6.44 | 155 | 155 | 499 |
| [O-][n+]1ccccc1S [PYRITHIONE] |  | 9.8 (≈ 1.25 µg/mL) |  |  |  |  |  |  |
| FC(F)(F)c1ccc(NC(=S)Nc2cccc3cccnc23)cc1 | > 50 | 6.25 (≈ 2.17 µg/mL) | 6.25 (≈ 2.17 µg/mL) |  |  |  |  |  |
| O=[N+]([O-])c1ccc(NC(=S)Nc2cccc3cccnc23)cc1 | > 50 | > 25 | > 50 |  |  |  |  |  |
| CC(C)C[C@@H]1NC(=O)[C@H](CCCN)NC(=O)[C@H](C(C)C)NC(=O)[C@@H]2CCCN2C(=O)[C@@H](Cc2ccccc2)NC(=O)[C@H](CC(C)C)NC(=O)[C@H](CCCN)NC(=O)[C@H](C(C)C)NC(=O)C2CCCN2C(=O)[C@@H](Cc2ccccc2)NC1=O (stereo partly drawn) (cyclo(L[dF]PV[Orn]L[dF][ξP]V[Orn])) | 4.51 (≈ 5.15 µg/mL) | 3.12 (≈ 3.56 µg/mL) | 6.5 (≈ 7.42 µg/mL) |  |  |  |  |  |
| S=C(Nc1ccccc1)Nc1cccc2cccnc12 | > 50 | > 25 | > 50 |  |  |  |  |  |
